Results reported in PubChem BioAssay (NCI).
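Values below derive from 48-hour exposures of cells grown in 96-well plates, with endpoints linearly interpolated between the two concentrations bracketing the appropriate inhibition level. GI50: concentration for 50% inhibition of growth. TGI: concentration producing complete growth inhibition.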

How the values were obtained:
Experiment in all cases: NCI anticancer screen, dose series, 48 h
[1] = test system: HCT-116 colon
[2] = test system: CCRF-CEM leukemia
[3] = test system: OVCAR-5 ovarian
[4] = test system: HOP-62 NSCLC
[5] = test system: MDA-MB-435
[6] = test system: SNB-19 CNS
[7] = test system: RXF 393 renal
[8] = test system: UO-31 renal
[9] = test system: SF-295 CNS
[10] = test system: M14 melanoma
[11] = test system: MDA-MB-468 breast
[12] = test system: MCF7 breast
[13] = test system: SK-MEL-28 melanoma
[14] = test system: A549 NSCLC
[15] = test system: UACC-257 melanoma
[16] = test system: OVCAR-8 ovarian
[17] = test system: HL-60(TB) leukemia
[18] = test system: SN12C renal
[19] = test system: HCT-15 colon
[20] = test system: SW-620 colon
[21] = test system: SF-539 CNS
[22] = test system: NCI-H23 lung
[23] = test system: NCI-H522 lung
[24] = test system: SK-MEL-2 melanoma
[25] = test system: DU-145 prostate
[26] = test system: IGROV1 ovarian
[27] = test system: SNB-75 CNS
[28] = test system: HT29 colon
[29] = test system: SK-OV-3 ovarian
[30] = test system: KM12 colon
[31] = test system: NCI/ADR-RES ovarian
[32] = test system: NCI-H226 lung
[33] = test system: HCC-2998 colon
[34] = test system: CAKI-1 renal
[35] = test system: LOX IMVI melanoma
[36] = test system: EKVX NSCLC
[37] = test system: ACHN renal
[38] = test system: HOP-92 NSCLC
[39] = test system: BT-549 breast
[40] = test system: MOLT-4 leukemia
[41] = test system: PC-3 prostate
[42] = test system: T-47D breast
[43] = test system: COLO 205 colon
[44] = test system: TK-10 renal
[45] = test system: OVCAR-4 ovarian
[46] = test system: SF-268 CNS
[47] = test system: A498 renal
[48] = test system: 786-0 renal
[49] = test system: MDA-MB-231 breast
[50] = test system: RPMI-8226 leukemia
[51] = test system: MALME-3M melanoma
[52] = test system: UACC-62 melanoma
[53] = test system: SK-MEL-5 melanoma
[54] = test system: HS 578T breast
[55] = test system: K-562 leukemia
[56] = test system: U251 CNS
[57] = test system: OVCAR-3 ovarian
[58] = test system: NCI-H460 lung

Compound: O=C(c1ccc(OCCN2CCOCC2)cc1)C1[C@H](c2ccc(Cl)cc2)[C@@H](c2ccccc2)NC12C(=O)Nc1ccc(Br)cc12 (stereo partly specified)
- GI50 [1]: 2.63 µM
- TGI [1]: 5.45 µM
- GI50 [2]: 4.42 µM
- TGI [2]: 12.8 µM
- GI50 [3]: 2.95 µM
- TGI [3]: 9.56 µM
- GI50 [4]: 2.83 µM
- TGI [4]: 6.58 µM
- GI50 [5]: 3.17 µM
- TGI [5]: 7.28 µM
- GI50 [6]: 4.46 µM
- TGI [6]: > 16.3 µM
- GI50 [7]: 1.84 µM
- TGI [7]: 4.57 µM
- GI50 [8]: 2.57 µM
- TGI [8]: 7.86 µM
- GI50 [9]: 2.4 µM
- TGI [9]: 4.94 µM
- GI50 [10]: 2.56 µM
- TGI [10]: 5.44 µM
- GI50 [11]: 2.83 µM
- TGI [11]: 7.65 µM
- GI50 [12]: 2.92 µM
- TGI [12]: 10.2 µM
- GI50 [13]: 2.7 µM
- TGI [13]: 5.08 µM
- GI50 [14]: 4.27 µM
- TGI [14]: > 16.3 µM
- GI50 [15]: 3.69 µM
- TGI [15]: 13 µM
- GI50 [16]: 4.37 µM
- TGI [16]: > 16.3 µM
- GI50 [17]: 4.2 µM
- TGI [17]: 12 µM
- GI50 [18]: 2.35 µM
- TGI [18]: 4.53 µM
- GI50 [19]: 2.69 µM
- TGI [19]: 6.23 µM
- GI50 [20]: 2.78 µM
- TGI [20]: 5.68 µM
- GI50 [21]: 2.73 µM
- TGI [21]: 5.19 µM
- GI50 [22]: 2.87 µM
- TGI [22]: 6.76 µM
- GI50 [23]: 3.39 µM
- TGI [23]: 8.58 µM
- GI50 [24]: 2.32 µM
- TGI [24]: 4.8 µM
- GI50 [25]: 3.91 µM
- TGI [25]: 11.8 µM
- GI50 [26]: 3.32 µM
- TGI [26]: 9.74 µM
- GI50 [27]: 2.37 µM
- TGI [27]: > 16.3 µM
- GI50 [28]: 2.49 µM
- TGI [28]: 5.38 µM
- GI50 [29]: 4.46 µM
- TGI [29]: > 16.3 µM
- GI50 [30]: 2.98 µM
- TGI [30]: 7.26 µM
- GI50 [31]: 3.87 µM
- TGI [31]: 12.1 µM
- GI50 [32]: 2.94 µM
- TGI [32]: 7.82 µM
- GI50 [33]: 2.61 µM
- TGI [33]: 5.37 µM
- GI50 [34]: 3 µM
- TGI [34]: > 16.3 µM
- GI50 [35]: 2.43 µM
- TGI [35]: 4.59 µM
- GI50 [36]: 2.71 µM
- TGI [36]: 11.2 µM
- GI50 [37]: 3.84 µM
- TGI [37]: 14.3 µM
- GI50 [38]: 2.35 µM
- TGI [38]: 6.69 µM
- GI50 [39]: 3.44 µM
- TGI [39]: 8.33 µM
- GI50 [40]: 2.9 µM
- TGI [40]: 10.2 µM
- GI50 [41]: 2.96 µM
- TGI [41]: 9.34 µM
- GI50 [42]: 3.09 µM
- TGI [42]: > 16.3 µM
- GI50 [43]: 2.52 µM
- TGI [43]: 4.93 µM
- GI50 [44]: 3.62 µM
- TGI [44]: 11.1 µM
- GI50 [45]: 4.33 µM
- TGI [45]: > 16.3 µM
- GI50 [46]: 3.66 µM
- TGI [46]: > 16.3 µM
- GI50 [47]: 3.05 µM
- TGI [47]: 7.55 µM
- GI50 [48]: 2.95 µM
- TGI [48]: 6.69 µM
- GI50 [49]: 2.66 µM
- TGI [49]: 5.09 µM
- GI50 [50]: 4.05 µM
- TGI [50]: 16.1 µM
- GI50 [51]: 2.39 µM
- TGI [51]: 5.09 µM
- GI50 [52]: 2.22 µM
- TGI [52]: 4.46 µM
- GI50 [53]: 2.69 µM
- TGI [53]: 5.11 µM
- GI50 [54]: 2.58 µM
- TGI [54]: 7.19 µM
- GI50 [55]: 3.87 µM
- TGI [55]: > 16.3 µM
- GI50 [56]: 2.6 µM
- TGI [56]: 5.52 µM
- GI50 [57]: 2.56 µM
- TGI [57]: 6.91 µM
- GI50 [58]: 2.8 µM
- TGI [58]: 5.59 µM
